Experimental data reported in patent US20040197268A1, “Method of imaging amyloid deposits using substituted rhodanine derivatives” (priority 1999, published 2004).

What was measured:
[1] = target: T1, Aβ(1-40) (Homo sapiens, UniProt P05067); assay: BASST (Beta-Amyloid Self-Seeding, ThioflavinT), inhibitors of self-seeded amyloid fibril growth; format: biochemical; conditions: 30 μM soluble Aβ(1-40), pH 7.5, 37° C., 3 to 5 hours, thioflavin T fluorescence
T1 construct: Soluble Aβ(1-40) peptide (Bachem, Torrance, Calif.); purchased Bachem, Torrance, Calif
Description: BASST (Beta-Amyloid Self-Seeding, ThioflavinT)
(§1) An assay for inhibitors of self-seeded amyloid fibril growth
Assay Buffer—50 mM sodium phosphate, pH 7.5, 100 mM NaCl, 0.02% NaN3, 1 M urea (filter and store at 4° C.).
Soluble Aβ(1-40)—2.2 mg/mL in deionized H2O (store in aliquots at −20° C., keep on ice when thawed) will self-seed after 1 week storage. Typically, the solution should be stored until no lag phase is seen in the assay.
Final assay conditions: 30 μM soluble Aβ(1-40) in deionized water in assay buffer. Compound to be tested is dissolved in DMSO, typically 5-50 mM stock, such that the final concentration of DMSO is <1% v/v in the assay.
Assay: Reaction mixture for 50 assays (on ice) comprised of 1 μL of soluble Aβ(1-40)+13.5 μL assay buffer per assay. The following are the amounts of the components of the reaction mixture that result in each of the 50 assay wells.
1) Prepare the reaction mix above by mixing the components and storing on ice.
2) Pipet […] of reaction mixture into each of 50 wells of a polystyrene U-bottom 96-well microtiter plate (Corning 25881-96) on ice.
(§2) 3) Add 1.7 mL of diluted compound to be tested to each well in a column of eight, including solvent control. Serial 3-fold dilutions from 1 mM (100 μM final) in assay buffer−urea=7 dilutions+zero. Each 96-well plate can therefore accommodate 11 samples+1 Congo Red control (0.039-5 μM final in 2-fold steps).
4) Seal the plate with aluminum film and incubate for 10 minutes on ice.
5) Raise the temperature to 37° C. and incubate for 3 to 5 hours (depends on the lot of the peptide).
6) Remove the aluminum film and add 250 μL/well of 5 μM thioflavin T (ThT) [T-3516, Sigma-Aldrich] in 50 mM glycine-NaOH, pH 8.5. Read fluorescence on a plate reader (ex=440 nm/20 nm; em=485 nm/20 nm) within 5 minutes.

[2] = target: T1, Aβ(1-40); assay: BASSR (Beta-Amyloid Self-Seeding Radioassay), inhibitors of self-seeded amyloid fibril growth; format: biochemical; conditions: 30 μM soluble Aβ(1-40) + 125I-labeled Aβ(1-40), pH 7.5, 37° C., 3 to 5 hours, filtration
Description: BASSR (Beta-Amyloid Self-Seeding Radioassay)
as §1
Assay Buffer—50 mM sodium phosphate, pH 7.5, 100 mM NaCl, 0.02% NaN3, 1 M urea (filter and store at 4° C.)
Soluble Aβ(1-40) peptide (Bachem, Torrance, Calif.)—2.2 mg/mL in deionized H2O (stored in aliquots at −20° C., keep on ice when thawed) will self-seed after 1 week storage. Typically, the solution should be stored until no lag phase is seen in the assay.
^125I-labeled Aβ(1-40)—150K-350K cpm/μL in 100% acetonitrile—0.1% trifluoroacetic acid (TFA)—1% β-mercaptoethanol (aliquots stored at −20° C.). ^125I-labeled Aβ(1-40) can be made in accordance with the procedure set forth by H. Levine, III in Neurobiol. Aging, 16:755 (1995), which is hereby incorporated by reference, or this reagent may be purchased from Amersham, Arlington Heights, Ill.
Final assay conditions: 30 μM soluble Aβ(1-40) in deionized water in assay buffer+20-50K cpm ^125I-labeled Aβ(1-40) per assay. Compound to be tested is dissolved in dimethylsulfoxide (DMSO), typically 5-50 mM stock, such that the final concentration of DMSO is <1% v/v in the assay.
Assay: Reaction mixture for 50 assays (on ice) is comprised of 0.1-0.2 μL of […] ^125I-labeled Aβ(1-40)+1 μL of soluble Aβ(1-40)+13.5 μL assay buffer per assay. The following are the amounts of the components of the reaction mixture sufficient for 50 assay wells.
1) Prepare reaction mixture above by mixing components and storing on ice.
2) Pipet 14.5 μL of reaction mixture into each of 50 wells on a polypropylene U-bottom 96-well microtiter plate on ice (Costar 3794).
as §2, with “μL” for “mL”
4) Seal the plate with aluminum film (Beckman 538619) and incubate for 10 minutes on ice.
5) Raise the temperature to 37° C. and incubate for 3 to 5 hours (depending on the lot of the peptide).
6) Remove the aluminum film and add 200 μL/well of ice cold assay buffer with urea, collecting the radiolabeled fibrils by vacuum filtration through 0.2 μm pore size GVWP filters in 96-well plates (Millipore MAGV N22, Bedford, Mass.). Determine the radioactivity of the filters using standard methods well-known to those skilled in the art.

[3] = target: T2, beta amyloid peptide Aβ(1-40) (Homo sapiens, UniProt P05067); assay: BAPA (Beta-Amyloid Peptide Aggregation), pH 6.0; format: biochemical; conditions: Aβ(1-40) 33 μM, pH 6.0, 2 to 4 hours at room temperature, filtration
T2 construct: 0.5 mg/mL AP (140) peptide in 20% HFIP+0.1 μL/assay radioiodinated ^125I Aβ(1-40)
Description: BAPA (Beta-Amyloid Peptide Aggregation)
This assay is used to provide a measure of inhibition by a compound against the aggregation behavior of the beta amyloid peptide.
The purpose of this assay is to provide a higher volume method of assaying the amount of beta amyloid aggregation using an endpoint assay based on filtration. In this assay, hexafluoroisopropanol (HFIP) is used to break down the initial amyloid peptide to a monomer state and use a concentration of 33 μM which is high enough so that aggregation will occur at pH 6.0 in several hours.
β-Amyloid Peptide Aggregation, pH 6.0 (BAPA)
In a 96-well plate (Costar 3794), we add […] 50 mM Phosphate Buffer, pH 6.0, 10 μL 0.5 mg/mL AP (140) peptide in 20% HFIP+0.1 μL/assay radioiodinated ^125I Aβ(1-40) [^125I Aβ(1-40)], and 1 μL of the compound to be tested starting at 50 mM with a concentration of DMSO <1%. Then, we incubate for 2 to 4 hours at room temperature. We stop the reaction with […] of 50 mM phosphate buffer, pH 6.0, and filter it through a 0.2 μm 96-well filter plate (Millipore MAGU N22). We wash the filter plate with 100 μL of the same phosphate buffer. Aggregation was detected on a Microbeta counter after impregnating the filters with Meltilex (1450-441) and is corrected for background.

[4] = target: T3, Aβ(1-42) (Homo sapiens, UniProt P05067); assay: BATYM Assay (Aβ(1-42) aggregation, Thioflavin T fluorescence); format: biochemical; conditions: Aβ 1-42 final concentration 100 μM, PBS pH 7.4, 37° C., 1 day, ThT fluorescence
T3 construct: Required Aβ(1-42)(California Peptide) was dried from its hexafluoroisopropanol (HFIP) stock solution; purchased California Peptide
Description: Required Aβ(1-42)(California Peptide) was dried from its hexafluoroisopropanol (HFIP) stock solution. The Aβ(1-42) was dissolved in dimethylsulfoxide (DMSO) and then mixed with phosphate buffered saline, (PBS) (pH 7.4). The mixed Aβ(1-42) solution was filtered with a 0.2 μm Omnipore membrane syringe filter (Millipore, Bedford, Mass.). The compound to be tested in DMSO (50 times concentrate) was put into each well (0.5 μL/well) of a 96-well plate. The Aβ(1-42) solution was added into each well (24.5 μL/well). The plate was centrifuged at 1,000 g for 5 minutes and incubated at 37° C. for 1 day (Aβ 1-42; final concentration 100 μM).
After incubation Thioflavin T (ThT) (30 μM) solution in glycine-NaOH buffer (pH 8.5, 50 mM) was added into each well (250 μL/well), fluorescence was measured (ex. 440/20 nm; em 485/20 nm) using a fluorescence plate reader. The inhibitory activity was calculated as the reduction of fluorescence with the following formula:
inhibition (%)={(F(Aβ)−F(Aβ+compound)}/{F(Aβ)−F(solvent+compound)}×100
The IC50s were calculated by a curve fitting program using the following equation. The data were obtained from two different experiments in triplicate.
x=concentration of tested compound (M),

T3 sequence (P05067 672-713 limits assumed): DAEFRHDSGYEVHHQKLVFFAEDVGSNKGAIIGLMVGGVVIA
T2 sequence (P05067 672-711 limits assumed): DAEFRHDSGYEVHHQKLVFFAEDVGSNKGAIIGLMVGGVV
T1 sequence (P05067 672-711 limits assumed): as above

Row | Structure (SMILES) | IC50 [1] [µM] | melting point [°C] | IC50 [2] [µM] | IC50 [3] [µM] | IC50 [4] [µM]
1 | CCCCCCN(C)c1ccc(/C=C2\SC(=S)N(CCNS(=O)(=O)C(F)(F)F)C2=O)cc1 [Example 12, (Z) C,C,C-Trifluoro-N-(2-{5-[4-(hexyl-methyl-amino)benzyldene]-4-oxo-2-thioxo-thiazolidin-3-yl}-ethyl)methanesulfonamide] | 1 | 170 to 173 | > 100 | 26 | 1.64
2 | CCCCCN(CCCCC)c1ccc(/C=C2\SC(=S)N(CC(=O)NS(=O)(=O)c3ccc(F)cc3)C2=O)cc1 [Example 27, (Z) N-{2-[5-(4-Dipentylamino-benzylidene)-4-oxo-2-thioxo-thiazolidin-3-yl]-acetyl}-4-fluoro-benzenesulfonamide] | 2 | 130 to 132 | 7 | 93 | 2.02
3 | O=C(NS(=O)(=O)CCN1C(=O)/C(=C/c2ccc(N3CCC4CCCCC4C3)cc2)SC1=S)c1ccc(F)cc1 (centres unmarked) [Example 30, (Z) 2-{5-[4(Octahydro-isoquinolin-2-yl)benzylidene]-4-oxo-2′-thioxo-thiazolidin-3-yl}-ethanesulfonic acid 4-fluoro-benzoylamide] | 0.3 | 248 | > 100 | > 60 | 2.26
4 | CCCCCCN(C)c1ccc(/C=C2\SC(=S)N(CCNS(C)(=O)=O)C2=O)cc1 [Example 10, (Z) N-(2-{5-[4-(Hexyl-methyl-amino)-benzylidene]-4-oxo-2-thioxo-thiazolin-3-yl}-ethyl)-methanesulfonamide] | 1.1 | 150 to 153 | > 100 | 8 | 2.51
5 | CCCCCN(CCCCC)c1ccc(/C=C2\SC(=S)N(CCS(=O)(=O)NC(=O)c3ccc(F)cc3)C2=O)cc1 [Example 31, (Z) 2-[5-(4-Dipentylamino-benzylidene)-4-oxo-2-thioxo-thiazolidin-3-yl]-ethanesulfonic acid 4-fluoro-benzoylamide] | 0.3 | 195 to 196 | 9 | > 100 | 3.11
6 | CCCC1CCN(c2ccc(/C=C3\SC(=S)N(CC(=O)NS(=O)(=O)c4ccccc4)C3=O)cc2)CC1 [Example 36, (Z) N-(2-{4-Oxo-5-[4-(4-propyl-piperidin-1-yl)-benzylidene]-2-thioxo-thiazolidin-3-yl}-acetyl)benzenesulfonamide] | 1 | 201 | > 100 | > 60 | 3.3
7 | CCCCCCN(C)c1ccc(/C=C2\SC(=S)N(CC(=O)NS(C)(=O)=O)C2=O)cc1 [Example 5, (Z) N-({5-[4-(Hexyl-methyl-amino)-benzylidene]4-oxo-2-thioxo-thiazolidin-3-yl}-acetyl)methanesulfonamide] | 0.8 | 227 to 230 | 9 | > 10 | 1.83
8 | CCCCN(CCCC)c1ccc(/C=C2\SC(=S)N(CC(=O)NS(=O)(=O)c3ccccc3)C2=O)cc1 [Example 19, (Z) N-{[5-(4-Dibutylamino-benzytidene)-4-oxo-2-thioxo-thiazolidin-3-yl]-acetyl}-benzenesulfonamide] | 1.1 | 112 to 115 | 5 | 129 | 1.77
9 | CCCCCCN(C)c1ccc(/C=C2\SC(=S)N(CCS(=O)(=O)NC(=O)C(F)(F)F)C2=O)cc1 [Example 3, (Z) 2-{5-[4-(Hexyl-methyl-amino)-benzylidene]-4-oxo-2-thioxo-thiazolidin-3-yl}-ethanesulfonic acid trifluoroacetyl-amide] | 0.3 | 158 to 162 | 8 | > 100 | 2.24
10 | CCCCCN(CCCCC)c1ccc(/C=C2\SC(=S)N(CC(=O)NS(=O)(=O)c3ccccc3)C2=O)cc1 [Example 22, (Z) N-{2-[5-(4-Dipentylamino-benzylidene)-4-oxo-2-thioxo-thiazolidin-3-yl]-acetyl}-benzenesulfonamide] | 1 | 121 to 123 | 3 | > 60 | 1.99
